This note sets out measurements from ChEMBL document CHEMBL1157687, “Inhibitory activity of Brazilian green propolis components and their derivatives on the release of cys-leukotrienes” (Bioorg Med Chem, 2010).

Values after ≈ are worked out from the molar mass of the structure shown. Bounds are passed on as bounds.

The assay concerns HL-60 (Homo sapiens). The experiment in a line: Antiallergic activity in Ca(2+)-stimulated differentiated human HL-60 cells assessed as inhibition of cys-leukotriene release after 6 days by ELISA. The settings on record: HL-60, 144 h.
Regarding `CC(C)=CCc1cc(/C=C/C(=O)OCCc2ccccc2)ccc1O` [DRUPANIN PHENETHYL ESTER], the IC50 (usually the concentration that gives 50% inhibition) was 0.2 µg/mL (≈ 0.594 µM).

Regarding `O=c1c(O)c(-c2ccc(O)cc2)oc2cc(O)cc(O)c12` [KAEMPFEROL], the half-inhibitory concentration (IC50) amounted to 2.4 µg/mL (≈ 8.38 µM).

On to `O=C(/C=C/c1ccc(O)c(O)c1)OCCc1ccccc1` [CAFFEIC ACID PHENETHYL ESTER], for which the IC50 came to 0.068 µg/mL (≈ 0.239 µM).

As to `O=C1C[C@@H](c2ccccc2)Oc2cc(O)cc(O)c21` [PINOCEMBRIN], the IC50 is 6.1 µg/mL (≈ 23.8 µM).

Turning to `CC(C)=CCc1cc(/C=C/C(=O)O)cc(CC=C(C)C)c1O` [ARTEPILLIN], the IC50 was found to be 7 µg/mL (≈ 23.3 µM).

Turning to `CC(C)=CCc1cc(/C=C/C(=O)O)ccc1O` [DRUPANIN], the IC50 came to 10.3 µg/mL (≈ 44.3 µM).

For `CC(C)=CCc1cc(/C=C/C(=O)OCCc2ccccc2)cc2c1OC(C)(C)C=C2` [CULIFOLIN PHENETHYL ESTER], the IC50 was more than 10 µg/mL.

Regarding `CC(C)=CCc1cc(/C=C/C(=O)O)cc2c1OC(C)(C)C=C2` [CULIFOLIN], the IC50 was found to be 1.6 µg/mL (≈ 5.36 µM).

Regarding `CC(Cc1ccc(O)c(O)c1)C(C)Cc1ccc(O)c(O)c1` (centres undefined) [NORDIHYDROGUAIARETIC ACID], the IC50 was determined as 0.08 µg/mL (≈ 0.265 µM).

For the compound `CC(C)=CCc1cc(/C=C/C(=O)OCCc2ccccc2)ccc1OC(=O)CCc1ccccc1` [BACCHARIN PHENETHYL ESTER], the IC50 was more than 10 µg/mL.

Consider `CC(C)=CCc1cc(/C=C/C(=O)OCCc2ccccc2)cc(CC=C(C)C)c1O` [ARTEPILLIN C PHENETHYL ESTER], for which the IC50 turned out to be 0.094 µg/mL (≈ 0.232 µM).

Turning to `CC(c1cc2ccccc2s1)N(O)C(N)=O` (centres undefined) [ZILEUTON], the IC50 stood at 0.04 µg/mL (≈ 0.169 µM).

`O=C(O)/C=C/c1ccc(O)c(O)c1` [CAFFEIC ACID]: the IC50 stood at 44 µg/mL (≈ 244 µM).

As for `COc1ccc(-c2oc3cc(O)cc(O)c3c(=O)c2O)cc1` [KAEMPFERIDE], the IC50 worked out at 2 µg/mL (≈ 6.66 µM).
